Reference: ChEMBL document CHEMBL4613325, “Design of Development Candidate eFT226, a First in Class Inhibitor of Eukaryotic Initiation Factor 4A RNA Helicase” (J Med Chem, 2020)

Columns and labels:
[1] = test system: MDA-MB-231; experiment: Antiproliferative activity against human MDA-MB-231 cells assessed as reduction in cell proliferation incubated for 72 hrs by CellTiter-Glo reagent based assay; type: functional; settings: MDA-MB-231, 72 h
[2] = Apparent permeability from apical to basolateral side in human Caco2 cells at 10 uM by LC/MS/MS analysis
[3] = Stability in human liver microsomes assessed as parent compound remaining at 1 uM pre-incubated for 10 mins before NADPH addition and measured after 30 mins by LC/MS/MS analysis; type: ADME, Microsome; settings: read-out: Stability
[4] = Stability in rat liver microsomes assessed as parent compound remaining at 1 uM pre-incubated for 10 mins before NADPH addition and measured after 30 mins by LC/MS/MS analysis; type: ADME, Microsome; settings: read-out: Stability
[5] = Efflux ratio in human Caco2 cells at 10 uM by LC/MS/MS analysis; settings: for efflux ratio at 10 µM: Caco-2
[6] = target: hERG (KCNH2) (Homo sapiens, UniProt Q12809); experiment: Inhibition of human ERG at 10 uM by patch-clamp assay relative to control
Chain of hERG (KCNH2) (Q12809 whole entry): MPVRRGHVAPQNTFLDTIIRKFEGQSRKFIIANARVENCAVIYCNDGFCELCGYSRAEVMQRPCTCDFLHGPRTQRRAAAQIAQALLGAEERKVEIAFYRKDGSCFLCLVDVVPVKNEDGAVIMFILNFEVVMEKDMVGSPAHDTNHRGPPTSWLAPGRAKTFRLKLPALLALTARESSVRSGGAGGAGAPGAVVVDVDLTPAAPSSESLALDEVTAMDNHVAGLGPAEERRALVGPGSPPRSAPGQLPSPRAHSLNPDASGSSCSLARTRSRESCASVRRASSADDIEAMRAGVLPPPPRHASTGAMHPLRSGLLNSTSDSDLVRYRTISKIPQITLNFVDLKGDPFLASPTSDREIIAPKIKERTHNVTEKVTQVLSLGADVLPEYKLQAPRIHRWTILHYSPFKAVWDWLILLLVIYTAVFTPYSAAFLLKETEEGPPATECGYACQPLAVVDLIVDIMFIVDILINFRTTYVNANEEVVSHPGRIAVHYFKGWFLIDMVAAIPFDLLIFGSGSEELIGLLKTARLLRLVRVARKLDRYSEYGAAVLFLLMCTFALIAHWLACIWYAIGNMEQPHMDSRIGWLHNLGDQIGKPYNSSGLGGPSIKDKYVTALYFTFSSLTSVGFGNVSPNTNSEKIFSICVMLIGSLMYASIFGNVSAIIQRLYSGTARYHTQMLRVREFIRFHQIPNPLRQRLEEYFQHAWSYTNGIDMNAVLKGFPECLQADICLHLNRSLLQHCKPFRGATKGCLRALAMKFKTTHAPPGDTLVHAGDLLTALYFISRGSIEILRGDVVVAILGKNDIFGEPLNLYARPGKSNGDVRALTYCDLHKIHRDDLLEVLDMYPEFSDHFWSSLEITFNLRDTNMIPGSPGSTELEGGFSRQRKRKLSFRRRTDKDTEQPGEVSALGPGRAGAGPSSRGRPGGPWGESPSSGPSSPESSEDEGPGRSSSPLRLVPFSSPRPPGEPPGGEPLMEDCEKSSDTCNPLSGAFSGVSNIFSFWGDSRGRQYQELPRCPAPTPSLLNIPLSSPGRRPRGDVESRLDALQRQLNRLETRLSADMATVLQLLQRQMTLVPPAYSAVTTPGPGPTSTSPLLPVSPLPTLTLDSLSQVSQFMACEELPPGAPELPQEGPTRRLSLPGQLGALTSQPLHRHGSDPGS

| SMILES | IC50 [1] [nM] | other results |
| --- | --- | --- |
| COc1ccc([C@@]23Oc4cc(C#N)ccc4[C@]2(O)[C@H](O)[C@H](C(=O)N(C)C)[C@H]3c2ccccc2)cc1 (racemic) | 38 |  |
| CN(C)S(=O)(=O)[C@H]1[C@@H](O)[C@@]2(O)c3ncc(Cl)cc3O[C@@]2(c2ccc(C#N)cc2)[C@@H]1c1ccccc1 (racemic) | 304 |  |
| COc1cncc2c1[C@]1(O)[C@H](O)[C@H](CN(C)C)[C@@H](c3ccccc3)[C@]1(c1ccc(C#N)cc1)O2 (stereo in doubt; (+)-37) |  | Papp ([2]; caco-2, 10 µM, 10 µM): 0.2 ×10⁻⁶ cm/s; remaining at 0.5 h, 1 µM [3]: 75%; remaining at 0.5 h, 1 µM [4]: 72%; Ratio ([5]; caco-2, 10 µM, 10 µM): 23; inhibition at 10 µM [6]: 11% |
| COc1cncc2c1[C@]1(O)[C@H](O)[C@H](CN3CC4(COC4)C3)[C@@H](c3ccccc3)[C@]1(c1ccc(C#N)cc1)O2 | 124 | Papp A→B at 10 µM ([2]; Caco-2): 0.1 ×10⁻⁶ cm/s; remaining at 0.5 h, 1 µM [3]: 81%; remaining at 0.5 h, 1 µM [4]: 74%; efflux ratio at 10 µM [5]: 41 |
| CS(=O)(=O)[C@H]1[C@@H](O)[C@@]2(O)c3ncc(Cl)cc3O[C@@]2(c2ccc(C#N)cc2)[C@@H]1c1ccccc1 | 3020 |  |
| COc1cncc2c1[C@]1(O)[C@H](O)[C@H](CNC(C)(C)C)[C@@H](c3ccccc3)[C@]1(c1ccc(C#N)cc1)O2 | 301 | remaining at 0.5 h, 1 µM [3]: 99%; remaining at 0.5 h, 1 µM [4]: 92%; inhibition at 10 µM [6]: < 10% |
| COc1ccc([C@@]23Oc4cc(OC)cnc4[C@]2(O)[C@H](O)[C@H](C(=O)N(C)C)[C@H]3c2ccccc2)cc1 (racemic) | 990 |  |
| CN(C)C(=O)[C@H]1[C@@H](O)[C@@]2(O)c3ncc(Cl)cc3O[C@@]2(c2ccc(F)cc2)[C@@H]1c1ccccc1 | > 1000 |  |
| CNC(=O)[C@H]1[C@@H](O)[C@@]2(O)c3ncc(Cl)cc3O[C@@]2(c2ccc(C#N)cc2)[C@@H]1c1ccccc1 | 32 | Papp A→B at 10 µM ([2]; Caco-2, Papp): 0.5 ×10⁻⁶ cm/s |
| COc1ccc([C@@]23Oc4cc(Cl)ccc4[C@]2(O)[C@H](O)[C@H](C(=O)N(C)C)[C@H]3c2ccccc2)cc1 (racemic) | 52 |  |
| COc1cncc2c1[C@]1(O)[C@H](O)[C@H](CN3CC(F)(F)C3)[C@@H](c3ccccc3)[C@]1(c1ccc(C#N)cc1)O2 | 208 | Papp A→B at 10 µM ([2]; Caco-2): 1.9 ×10⁻⁶ cm/s; efflux ratio at 10 µM [5]: 5.7; inhibition at 10 µM [6]: < 10% |
| CN(C)C(=O)[C@H]1[C@@H](O)[C@@]2(O)c3ncc(C#N)cc3O[C@@]2(c2ccc(C#N)cc2)[C@@H]1c1ccccc1 | 385 |  |
| COc1ccc2c(c1)O[C@@]1(c3ccc(C#N)cc3)[C@H](c3ccccc3)[C@@H](C(=O)N(C)C)[C@@H](O)[C@@]21O (racemic) | 68 |  |
| CN(C)C(=O)[C@H]1[C@@H](O)[C@@]2(O)c3ncc(Cl)cc3O[C@@]2(c2ccc(C(F)F)cc2)[C@@H]1c1ccccc1 | 241 |  |
| CN(C)C(=O)[C@H]1[C@@H](O)[C@@]2(O)c3ncc(Cl)cc3O[C@@]2(c2ccc(C(F)(F)F)cc2)[C@@H]1c1ccccc1 | 320 |  |
| CN(C)C(=O)[C@H]1[C@@H](O)[C@@]2(O)c3ncc(Cl)cc3O[C@@]2(c2ccc(OC(F)(F)F)cc2)[C@@H]1c1ccccc1 | 603 |  |
| COc1nccc2c1[C@]1(O)[C@H](O)[C@H](C(=O)N(C)C)[C@@H](c3ccccc3)[C@]1(c1ccc(C#N)cc1)O2 (racemic) | 314 |  |
| COc1cnc2c(c1)O[C@@]1(c3ccc(C#N)cc3)[C@H](c3ccccc3)[C@@H](C(=O)N(C)C)[C@@H](O)[C@@]21O | 159 |  |
| COc1cncc2c1[C@]1(O)[C@H](O)[C@H](CN(C)CC(F)(F)F)[C@@H](c3ccccc3)[C@]1(c1ccc(C#N)cc1)O2 | 196 | Papp A→B at 10 µM ([2]; Caco-2): 7.1 ×10⁻⁶ cm/s; remaining at 0.5 h, 1 µM [3]: < 1%; remaining at 0.5 h, 1 µM [4]: < 1%; efflux ratio at 10 µM [5]: 1.3 |
| COc1ccc([C@@]23Oc4cc(C#N)cnc4[C@]2(O)[C@H](O)[C@H](C(=O)N(C)C)[C@H]3c2ccccc2)cc1 | 601 |  |

| SMILES | IC50 [1] [nM] | other results |
| --- | --- | --- |
| Cc1ccc([C@@]23Oc4cc(Cl)cnc4[C@]2(O)[C@H](O)[C@H](C(=O)N(C)C)[C@H]3c2ccccc2)cc1 | 143 |  |
| N#Cc1ccc([C@@]23Oc4cc(Cl)cnc4[C@]2(O)[C@H](O)[C@H](c2ncco2)[C@H]3c2ccccc2)cc1 (racemic) | 236 |  |
| CN(C)C(=O)[C@H]1[C@@H](O)[C@@]2(O)c3cnc(C#N)cc3O[C@@]2(c2ccc(C#N)cc2)[C@@H]1c1ccccc1 | 308 |  |
| CN(C)C(=O)[C@H]1[C@@H](O)[C@@]2(O)c3ncc(Cl)cc3O[C@@]2(c2ccc(C#N)cc2)[C@@H]1c1ccccc1 | 87 | Papp A→B at 10 µM ([2]; Caco-2): 1.8 ×10⁻⁶ cm/s |
| COc1ccc2c(n1)O[C@@]1(c3ccc(C#N)cc3)[C@H](c3ccccc3)[C@@H](C(=O)N(C)C)[C@@H](O)[C@@]21O (racemic) | > 1000 |  |
| COc1ccc([C@@]23Oc4cc(Cl)cnc4[C@]2(O)[C@H](O)[C@H](C(=O)N(C)C)[C@H]3c2ccccc2)cc1 | 283 |  |
| COc1ccc([C@@]23Oc4cc(OC)ccc4[C@]2(O)[C@H](O)[C@H](C(=O)N(C)C)[C@H]3c2ccccc2)cc1 (racemic) | 198 |  |
| N#Cc1ccc([C@@]23Oc4cc(Cl)cnc4[C@]2(O)[C@H](O)C[C@H]3c2ccccc2)cc1 (racemic) | 670 |  |
| CN(C)C(=O)[C@H]1[C@@H](O)[C@@]2(O)c3ccc(Cl)cc3O[C@@]2(c2ccc(C#N)cc2)[C@@H]1c1ccccc1 (racemic) | 19 |  |
| COc1cncc2c1[C@]1(O)[C@H](O)[C@H](CN3[C@@H]4CC[C@H]3COC4)[C@@H](c3ccccc3)[C@]1(c1ccc(C#N)cc1)O2 | 101 | Papp A→B at 10 µM ([2]; Caco-2): 1.9 ×10⁻⁶ cm/s; remaining at 0.5 h, 1 µM [3]: 51%; remaining at 0.5 h, 1 µM [4]: 51%; efflux ratio at 10 µM [5]: 5.3 |
| CN(C)C(=O)[C@H]1[C@@H](O)[C@@]2(O)c3ncc(Cl)cc3O[C@@]2(c2ccc(S(C)(=O)=O)cc2)[C@@H]1c1ccccc1 | > 1000 |  |
| N#Cc1ccc([C@@]23Oc4cc(Cl)cnc4[C@]2(O)[C@H](O)[C@H](C(N)=O)[C@H]3c2ccccc2)cc1 | 90 | Papp A→B at 10 µM ([2]; Caco-2): 0.5 ×10⁻⁶ cm/s |
| COc1cncc2c1[C@]1(O)[C@H](O)[C@H](CN3[C@@H]4CCC[C@H]3CC4)[C@@H](c3ccccc3)[C@]1(c1ccc(C#N)cc1)O2 | 143 | Papp A→B at 10 µM ([2]; Caco-2): 0.5 ×10⁻⁶ cm/s; remaining at 0.5 h, 1 µM [3]: 62%; remaining at 0.5 h, 1 µM [4]: 68%; efflux ratio at 10 µM [5]: 35 |
| CN(C)C[C@H]1[C@@H](O)[C@@]2(O)c3ncc(Cl)cc3O[C@@]2(c2ccc(C#N)cc2)[C@@H]1c1ccccc1 | 239 |  |
| N#Cc1ccc([C@@]23Oc4cc(Cl)cnc4[C@]2(O)[C@H](O)[C@H](CO)[C@H]3c2ccccc2)cc1 (racemic) | 1460 |  |
| COc1ccc([C@@]23Oc4cc(OC)cc(OC)c4[C@]2(O)[C@H](O)[C@H](C(=O)N(C)C)[C@H]3c2ccccc2)cc1 [ROCAGLAMIDE] | 20 |  |
| CN(C)C(=O)[C@H]1[C@@H](O)[C@@]2(O)c3ccc(C#N)cc3O[C@@]2(c2ccc(C#N)cc2)[C@@H]1c1ccccc1 (racemic) | 26 |  |
| CNS(=O)(=O)[C@H]1[C@@H](O)[C@@]2(O)c3ncc(Cl)cc3O[C@@]2(c2ccc(C#N)cc2)[C@@H]1c1ccccc1 (racemic) | 2040 |  |
| COc1cncc2c1[C@]1(O)[C@H](O)[C@H](CN3CCCCC3)[C@@H](c3ccccc3)[C@]1(c1ccc(C#N)cc1)O2 | 50 | remaining at 0.5 h, 1 µM [3]: 81%; remaining at 0.5 h, 1 µM [4]: 56% |
| CN(C)C(=O)[C@H]1[C@@H](O)[C@@]2(O)c3ncc(Cl)cc3O[C@@]2(c2ccc(Cl)cc2)[C@@H]1c1ccccc1 | 160 |  |
